Source: patent US8778966B2, “Quinolinone derivatives as PARP and tank inhibitors” (Janssen Pharmaceutica, NV, priority 2007, dated 2014)
Read-outs that look alike come from different tables or passages of the source.

How the values were obtained:
[1] = system: HCT116 cells; test: Antiproliferative activity, Alamar Blue assay, HCT116 cells; type: cell-based, human; conditions: Homo sapiens, HCT-116, HCT116 cells, read-out: HCT116 antiproliferative activity pIC50 (converted)
In short: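 HCT116 cells seeded, adhered 24 h, then exposed to compound for 4 days; Alamar Blue (resazurin) added for 4 h at 37 °C, fluorescence read at 540/590 nm. Viability as % of untreated control, triplicate wells; IC50 by probit analysis, reported as pIC50.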

[2] = system: PC-3 cells; test: Antiproliferative activity, Alamar Blue assay, PC-3 cells; type: cell-based, human; conditions: Homo sapiens, PC-3, PC3 cells, read-out: PC3 antiproliferative activity pIC50 (converted)
In short: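 PC-3 cells seeded at 4.5×10^3 cells/ml, left to adhere 24 hr, then exposed to compound for 4 days. Resazurin (Alamar Blue) added for a further 24 hrs at 37° C; fluorescence read at 540/590 nm. Viability as % of untreated control, mean of 3 wells; IC50 by probit analysis, reported as pIC50.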

[3] = system: tubulin; test: Tubulin polymerization assay; type: biochemical; parameters: key: a compound showing 0 to 50% inhibition at 20 μM is reported as score 1; Score 2 compounds are defined as compound showing more than 50% inhibition at 20 μM and less than 50% inhibition at 5 μM; a compound showing more than 50% inhibition at 5 μM is reported as score 3; conditions: tested at 20 μM and 5 μM
In short: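 Cytoskeleton kit tubulin was run in a 10 µl final volume at 37 °C, with fluorescence read every minute for 1 h. Polymerization was taken as the maximum slope (4-point linear regression) and expressed as % of no-compound control. Compounds were tested at 20 µM, then at 5 µM if inhibition exceeded 50%, and scored by % inhibition.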

IC50 ([1]; Alamar Blue) [µM]	IC50 ([2]; Alamar Blue) [µM]	IC50 [1] [µM]	IC50 [2] [µM]	melting point [°C]	SMILES	tubulin polymerisation score [3]
0.251	0.316				CCc1cc2ccc([C@@](C)(C#N)Cc3cccc(N(C)C)c3)cc2[nH]c1=O (single isomer, unassigned) [Compound 258]	
10	10				CCc1cc2ccc([C@](C)(C#N)Cc3cccc(N(C)C)c3)cc2[nH]c1=O (single isomer, unassigned) [Compound 259]	
3.16	5.01				CCC[C@@](C#N)(Cc1ccccc1)c1ccc2cc(CC)c(=O)[nH]c2c1 (single isomer, unassigned) [Compound 263]	
10	10				CCC[C@](C#N)(Cc1ccccc1)c1ccc2cc(CC)c(=O)[nH]c2c1 (single isomer, unassigned) [Compound 264]	
10	10				CCc1cc2ccc([C@@](C)(C#N)Cc3cccc(C#N)c3)cc2[nH]c1=O (single isomer, unassigned) [Compound 268]	1 (a compound showing 0 to 50% inhibition at 20 μM is reported as score 1)
0.2	0.398				CCc1cc2ccc([C@](C)(C#N)Cc3cccc(C#N)c3)cc2[nH]c1=O (single isomer, unassigned) [Compound 269]	2
10	10				CCc1cc2ccc([C@](C)(C#N)C[C@@H]3Cc4cc(C)ccc4O3)cc2[nH]c1=O (single isomer, unassigned) [Compound 400]	
		0.2	0.631	260	Cc1cc2ccc(C(C)(C#N)Cc3cccc(C#N)c3)cc2[nH]c1=O (stereo not drawn) [Compound 34]	
		7.94	> 10	233	Cc1cc2ccc([C@@](C)(C#N)Cc3cccc(C#N)c3)cc2[nH]c1=O [Compound 35]	
3.16	6.31				CCc1cc2ccc(C(C)(C#N)Cc3cccc(OC[C@@H](O)CO)c3)cc2[nH]c1=O (stereo partly drawn) [Compound 56]	
5.01	10				CCc1cc2ccc(C(C)(C#N)Cc3cccc(CNS(C)(=O)=O)c3)cc2[nH]c1=O (stereo not drawn) [Compound 170]	
1.58	1				CCc1cc2ccc([C@](C)(C#N)[C@H](C)c3ccccc3)cc2[nH]c1=O [Compound 200]	
5.01	2.51				CCc1cc2ccc(C(C)(C#N)Cc3cccc(OCCOC)n3)cc2[nH]c1=O (stereo not drawn) [Compound 219]	
0.251	0.501				CCc1cc2ccc(C(C)(C#N)Cc3cccc(OCCO)c3)cc2[nH]c1=O (stereo not drawn) [Compound 262]	2
6.31	3.98				CCc1cc2ccc(C(C)(C#N)CCOc3cccc(C(F)(F)F)c3)cc2[nH]c1=O (stereo not drawn) [Compound 274]	
0.158	0.501				CCc1cc2ccc(C(C)(C#N)Cc3cccc(CN)c3)cc2[nH]c1=O (stereo not drawn) [Compound 290]	1 (a compound showing 0 to 50% inhibition at 20 μM is reported as score 1)
0.501	0.501				CCc1cc2ccc(C(C)(C#N)Cc3cccc(/C=C/S(C)(=O)=O)c3)cc2[nH]c1=O (stereo not drawn) [Compound 292]	
0.794	6.31				CCc1c(Cl)c2ccc(C(C)(C#N)Cc3cccc(C#N)c3)cc2[nH]c1=O (stereo not drawn) [Compound 293]	
6.31	10				CCc1cc2cc(OC)c(C(C)(C#N)Cc3ccccc3)cc2[nH]c1=O (stereo not drawn) [Compound 294]	
0.398	1				CCc1cc2ccc(C(C)(C#N)Cc3cccc(C#CCOC)c3)cc2[nH]c1=O (stereo not drawn) [Compound 297]	
2.51	6.31				CCc1cc2ccc(C(C)(C#N)Cc3cccc(C#CCN(C)C)c3)cc2[nH]c1=O (stereo not drawn) [Compound 298]	
3.98	10				CCc1cc2ccc(C(C)(C#N)CNCc3cccc(C#N)c3)cc2[nH]c1=O (stereo not drawn) [Compound 301]	
2	2				CCc1cc2ccc(C(C)(C#N)Cc3cnc(Cl)nc3Cl)cc2[nH]c1=O (stereo not drawn) [Compound 306]	
0.316	0.316				COc1cc(OC)nc(CC(C)(C#N)c2ccc3cc(C)c(=O)[nH]c3c2)n1 (stereo not drawn) [Compound 308]	2
1	2				CCOc1cc(OCC)nc(CC(C)(C#N)c2ccc3cc(CC)c(=O)[nH]c3c2)n1 (stereo not drawn) [Compound 309]	
0.501	0.631				CCc1cc2ccc(C(C)(C#N)Cc3cccc(Cl)n3)cc2[nH]c1=O (stereo not drawn) [Compound 310]	
3.16	7.94				CCc1cc2ccc(C(C)(C#N)Cc3ncc(C)c(OC)c3C)cc2[nH]c1=O (stereo not drawn) [Compound 311]	

IC50 ([1]; Alamar Blue) [µM]	IC50 ([2]; Alamar Blue) [µM]	IC50 [1] [µM]	IC50 [2] [µM]	melting point [°C]	SMILES	tubulin polymerisation score [3]
2	7.94				CCc1cc2ccc(C(C)(C#N)Cc3ccc(C)nc3)cc2[nH]c1=O (stereo not drawn) [Compound 327]	1 (a compound showing 0 to 50% inhibition at 20 μM is reported as score 1)
0.316	0.501				CCc1cc2ccc(C(C)(C#N)Cc3cccc(C#N)n3)cc2[nH]c1=O (stereo not drawn) [Compound 329]	3 (a compound showing more than 50% inhibition at 5 μM is reported as score 3)
5.01	10				CCCn1ccnc1CC(C)(C#N)c1ccc2cc(CC)c(=O)[nH]c2c1 (stereo not drawn) [Compound 335]	
2.51	2.51				CCc1cc2ccc(C(C)(C#N)Cc3ccc4ccccc4n3)cc2[nH]c1=O (stereo not drawn) [Compound 336]	
5.01	5.01				CCc1cc2ccc(C(C)(C#N)Cc3nccn3CC)cc2[nH]c1=O (stereo not drawn) [Compound 337]	
1.58	2				CCc1cc2ccc(C(C)(C#N)Cc3nc4ccccc4n3C)cc2[nH]c1=O (stereo not drawn) [Compound 338]	2
0.794	2				CCc1cc2ccc(C(C)(C#N)Cc3cccc(C)n3)cc2[nH]c1=O (stereo not drawn) [Compound 343]	
0.316	0.631				CCc1cc2ccc(C(C)(C#N)Cc3cccc(Br)n3)cc2[nH]c1=O (stereo not drawn) [Compound 344]	
2	3.98				CCc1cc2ccc(C(C)(C#N)Cc3cccc(CO)n3)cc2[nH]c1=O (stereo not drawn) [Compound 345]	2
1.26	2.51				CCc1cc2ccc(C(C)(C#N)Cc3ccc(OC)nc3)cc2[nH]c1=O (stereo not drawn) [Compound 352]	
0.2	0.251				CCc1cc2ccc(C(C)(C#N)Cc3cccc(OC)n3)cc2[nH]c1=O (stereo not drawn) [Compound 353]	2
0.631	0.794				CCc1cc2ccc(C(C)(C#N)Cc3cnc(OC)nc3Cl)cc2[nH]c1=O (stereo not drawn) [Compound 356]	
0.398	0.398				CCc1cc2ccc(C(C)(C#N)Cc3cnc(OC)nc3OC)cc2[nH]c1=O (stereo not drawn) [Compound 357]	
3.16	2.51				CCc1cc2ccc(C(C)(C#N)Cc3cc(OC)nc(OC)n3)cc2[nH]c1=O (stereo not drawn) [Compound 358]	2
0.2	0.501				CCc1cc2ccc(C(C)(C#N)Cc3nc(Cl)cc(N(C)C)n3)cc2[nH]c1=O (stereo not drawn) [Compound 359]	2
1.26	1.26				CCc1cc2ccc(C(C)(C#N)Cc3nccc(OC)n3)cc2[nH]c1=O (stereo not drawn) [Compound 360]	2
5.01	5.01				CCc1cc2ccc(C(C)(C#N)Cc3cc(OCCOC)nc(C)n3)cc2[nH]c1=O (stereo not drawn) [Compound 363]	
1.26	0.794				CCc1cc2ccc(C(C)(C#N)Cc3cc(N(C)C)nc(Cl)n3)cc2[nH]c1=O (stereo not drawn) [Compound 364]	
0.631	0.631				CCc1cc2ccc(C(C)(C#N)Cc3cc(OC)nc(C)n3)cc2[nH]c1=O (stereo not drawn) [Compound 366]	
2.51	3.98				CCc1cc2ccc(C(C)(C#N)Cc3cc(OCCOC)nc(Cl)n3)cc2[nH]c1=O (stereo not drawn) [Compound 367]	
1.58	1.26				CCc1cc2ccc(C(C)(C#N)Cc3nc(C)cc(C)n3)cc2[nH]c1=O (stereo not drawn) [Compound 368]	
3.98	6.31				CCc1cc2ccc(C(C)(C#N)Cc3nccc(OCCOC)n3)cc2[nH]c1=O (stereo not drawn) [Compound 369]	
1.58	2.51				CCc1cc2ccc(C(C)(C#N)Cc3nc(Cl)cc(OCCOC)n3)cc2[nH]c1=O (stereo not drawn) [Compound 370]	
0.398	0.501				CCc1cc2ccc(C(C)(C#N)Cc3cc(Cl)nc(Cl)c3)cc2[nH]c1=O (stereo not drawn) [Compound 372]	
7.94	10				CCc1cc2ccc(C(C)(C#N)Cc3cc(OC)ccn3)cc2[nH]c1=O (stereo not drawn) [Compound 373]	
0.631	0.631				CCc1cc2ccc(C(C)(C#N)CC3CCc4ccccc4O3)cc2[nH]c1=O (stereo not drawn) [Compound 399]	

SMILES	IC50 ([1]; Alamar Blue) [µM]	IC50 ([2]; Alamar Blue) [µM]	IC50 [1] [µM]	IC50 [2] [µM]	melting point [°C]	tubulin polymerisation score [3]
CCc1cc2ccc(C(C)(C#N)Cc3cccc(C#C[Si](C)(C)C)n3)cc2[nH]c1=O (stereo not drawn) [Compound 210]	0.501	0.501				
